The source made the active and inactive calls. How the calls were made is not given here.
System: rodent lifetime carcinogenesis bioassay, tumor incidence TD50
Assay: carcinogenic potency in animals, long-term in vivo studies, CPDB compilation (AID 1745844)

O=C(O)c1cc(=O)[nH]c(=O)[nH]1 was tested, and the TD50 (rat, strain Fischer 344, males, in feed, site: Zymbal's gland, lesion: one or several types, types not named, dosed 104 weeks, study length 104 weeks) was 2600 mg/kg/day, the TD50 (rat, strain Fischer 344, males, in feed, site: all sites, lesion: leukemia, dosed 104 weeks, study length 104 weeks) was 1690 mg/kg/day and the TD50 (rat, strain Fischer 344, males, in feed, site: liver, lesion: hepatocellular adenoma, dosed 52 weeks, study length 52 weeks) was 925 mg/kg/day. It also gave a TD50 (rat, strain Fischer 344, males, in feed, site: liver, lesion: hepatocellular adenoma, dosed 104 weeks, study length 104 weeks) of 395 mg/kg/day.

With CCCCNC(=O)NS(=O)(=O)c1ccc(C)cc1 the TD50 (mouse, strain B6C3F1, females, in feed, site: any site (literature study), lesion: several types, types named in the paper, dosed 78 weeks, study length 103 weeks) was 24200 mg/kg/day (inactive), the carcinogen call (mouse, strain B6C3F1, males, in feed, site: any site (literature study), lesion: several types, types named in the paper, dosed 78 weeks, study length 102 weeks) was “negative (inactive)” and the carcinogen call (rat, strain Fischer 344, females, in feed, site: any site (literature study), lesion: several types, types named in the paper, dosed 78 weeks, study length 106 weeks) was “negative (inactive)”. The carcinogen call (rat, strain Fischer 344, males, in feed, site: any site (literature study), lesion: several types, types named in the paper, dosed 78 weeks, study length 106 weeks) was “negative (inactive)”.

In the case of CN[C@H]1CC[C@@H](c2ccc(Cl)c(Cl)c2)c2ccccc21, the TD50 (mouse, strain Charles River CD1, females, in feed, site: lung, lesion: alveolar/bronchiolar adenoma, dosed 104 weeks, study length 104 weeks) is reported as 247 mg/kg/day (inactive), the TD50 (mouse, strain Charles River CD1, males, in feed, site: liver, lesion: hepatocellular adenoma, dosed 104 weeks, study length 104 weeks) is reported as 147 mg/kg/day and the TD50 (mouse, strain Charles River CD1, males, in feed, site: liver, lesion: hepatocellular carcinoma, dosed 104 weeks, study length 104 weeks) is reported as 425 mg/kg/day. For the same compound, the TD50 (rat, strain Long-Evans, females, in feed, site: thyroid gland, lesion: follicular-cell adenoma, dosed 104 weeks, study length 104 weeks) was 352 mg/kg/day (inactive).

OCC(O)CCl (centres undefined) was tested, and the carcinogen call (rat, strain Charles River CD (Sprague-Dawley), females, by gavage, site: parathyroid, lesion: adenoma, dosed 72 weeks, study length 104 weeks) was “negative (inactive)” and the TD50 (rat, strain Charles River CD (Sprague-Dawley), males, by gavage, site: parathyroid, lesion: adenoma, dosed 72 weeks, study length 104 weeks) was 116 mg/kg/day.

With [Cu+2].[O-]c1cccc2cccnc12.[O-]c1cccc2cccnc12 the TD50 (mouse, strain B6AKF1, females, oral dosing, site: any site (literature study), lesion: several types, types named in the paper, dosed 76 weeks, study length 76 weeks) was 2490 mg/kg/day (inactive), the carcinogen call (mouse, strain B6AKF1, females, oral dosing, site: liver, lesion: hepatoma, dosed 76 weeks, study length 76 weeks) was “negative (inactive)” and the carcinogen call (mouse, strain B6AKF1, females, oral dosing, site: lung, lesion: adenoma, dosed 76 weeks, study length 76 weeks) was “negative (inactive)”. The TD50 (mouse, strain B6AKF1, males, oral dosing, site: any site (literature study), lesion: several types, types named in the paper, dosed 76 weeks, study length 76 weeks) was 11200 mg/kg/day (inactive), the TD50 (mouse, strain B6AKF1, males, oral dosing, site: liver, lesion: hepatoma, dosed 76 weeks, study length 76 weeks) was 967 mg/kg/day (inactive) and the carcinogen call (mouse, strain B6AKF1, males, oral dosing, site: lung, lesion: adenoma, dosed 76 weeks, study length 76 weeks) was “negative (inactive)”. For the same compound, the TD50 (mouse, strain B6C3F1, females, oral dosing, site: any site (literature study), lesion: several types, types named in the paper, dosed 76 weeks, study length 76 weeks) was 2490 mg/kg/day (inactive), the carcinogen call (mouse, strain B6C3F1, females, oral dosing, site: liver, lesion: hepatoma, dosed 76 weeks, study length 76 weeks) was “negative (inactive)” and the carcinogen call (mouse, strain B6C3F1, females, oral dosing, site: lung, lesion: several types, types named in the paper, dosed 76 weeks, study length 76 weeks) was “negative (inactive)”. The TD50 (mouse, strain B6C3F1, males, oral dosing, site: any site (literature study), lesion: several types, types named in the paper, dosed 76 weeks, study length 76 weeks) was 2050 mg/kg/day (inactive), the carcinogen call (mouse, strain B6C3F1, males, oral dosing, site: liver, lesion: hepatoma, dosed 76 weeks, study length 76 weeks) was “negative (inactive)” and the carcinogen call (mouse, strain B6C3F1, males, oral dosing, site: lung, lesion: several types, types named in the paper, dosed 76 weeks, study length 76 weeks) was “negative (inactive)”.

CC(=O)[O-].CC(=O)[O-].[OH-].[OH-].[OH-].[OH-].[Pb+2].[Pb+2].[Pb+2] was tested, and the carcinogen call (mouse, strain Swiss, females, in feed, site: kidney, lesion: adenoma, dosed 104 weeks, study length 104 weeks) was “positive”, the TD50 (mouse, strain Swiss, females, in feed, site: kidney, lesion: carcinoma, dosed 104 weeks, study length 104 weeks) was 14800 mg/kg/day and the TD50 (mouse, strain Swiss, males, in feed, site: kidney, lesion: adenoma, dosed 86 weeks, study length 104 weeks) was 986 mg/kg/day. For the same compound, the TD50 (mouse, strain Swiss, males, in feed, site: kidney, lesion: carcinoma, dosed 86 weeks, study length 104 weeks) was 472 mg/kg/day, the TD50 (rat, strain Sprague-Dawley, males, in feed, site: kidney, lesion: several types, types named in the paper, dosed 79 weeks, study length 79 weeks) was 266 mg/kg/day and the carcinogen call (rat, strain Sprague-Dawley, males, in feed, site: liver, lesion: one or several types, types not named, dosed 79 weeks, study length 79 weeks) was “negative (inactive)”. It also gave a TD50 (rat, strain Wistar, females, in feed, site: kidney, lesion: several types, types named in the paper, dosed 104 weeks, study length 104 weeks) of 339 mg/kg/day, a TD50 (rat, strain Wistar, females, in feed, site: kidney, lesion: several types, types named in the paper, dosed 126 weeks, study length 126 weeks) of 107 mg/kg/day and a TD50 (rat, strain Wistar, males, in feed, site: kidney, lesion: several types, types named in the paper, dosed 104 weeks, study length 104 weeks) of 443 mg/kg/day. The TD50 (rat, strain Wistar, males, in feed, site: kidney, lesion: several types, types named in the paper, dosed 126 weeks, study length 126 weeks) was 107 mg/kg/day.

Compound CN(C)CCN(C)N=O has a TD50 (hamster, strain Syrian Golden, females, by gavage, site: colon, lesion: several types, types named in the paper, dosed 61 weeks, study length 106 weeks) of 21 mg/kg/day, a TD50 (hamster, strain Syrian Golden, females, by gavage, site: liver, lesion: hepatocellular tumor, dosed 61 weeks, study length 106 weeks) of 44 mg/kg/day and a TD50 (hamster, strain Syrian Golden, females, by gavage, site: lung, lesion: alveolar/bronchiolar adenoma, dosed 61 weeks, study length 106 weeks) of 9.45 mg/kg/day. The TD50 (hamster, strain Syrian Golden, females, by gavage, site: nasal mucosa, lesion: malignant tumor, dosed 61 weeks, study length 106 weeks) was 9.45 mg/kg/day, the TD50 (hamster, strain Syrian Golden, females, by gavage, site: nasal mucosa, lesion: several types, types named in the paper, dosed 61 weeks, study length 106 weeks) was 2.76 mg/kg/day and the TD50 (hamster, strain Syrian Golden, males, by gavage, site: colon, lesion: adenocarcinoma, dosed 61 weeks, study length 106 weeks) was 38.7 mg/kg/day. The TD50 (hamster, strain Syrian Golden, males, by gavage, site: liver, lesion: hepatocellular tumor, dosed 61 weeks, study length 106 weeks) was 11.7 mg/kg/day, the TD50 (hamster, strain Syrian Golden, males, by gavage, site: nasal mucosa, lesion: malignant tumor, dosed 61 weeks, study length 106 weeks) was 38.7 mg/kg/day and the TD50 (hamster, strain Syrian Golden, males, by gavage, site: nasal mucosa, lesion: several types, types named in the paper, dosed 61 weeks, study length 106 weeks) was 6.25 mg/kg/day.

With CCCCCCCCCCCC[N+](C)(C)[O-] the carcinogen call (rat, strain Fischer 344, females, in drinking water, site: liver, lesion: neoplastic nodule, dosed 93 weeks, study length 128 weeks) was “negative (inactive)”, the TD50 (rat, strain Fischer 344, males, in drinking water, site: liver, lesion: hepatocellular carcinoma, dosed 93 weeks, study length 128 weeks) was 519 mg/kg/day (inactive) and the TD50 (rat, strain Fischer 344, males, in drinking water, site: liver, lesion: neoplastic nodule, dosed 93 weeks, study length 128 weeks) was 496 mg/kg/day (inactive). The TD50 (rat, strain Fischer 344, males, in drinking water, site: liver, lesion: several types, types named in the paper, dosed 93 weeks, study length 128 weeks) was 231 mg/kg/day (inactive).

Source: PubChem BioAssay AID1745844 (Carcinogenic Potency Database (CPDB), 2022)
